Experimental data taken from patent publication US7442683B2, “Cyclic peptide” (Takara Bio Inc., priority 2001, dated 2008).
Where two headings read alike, the source gives them in different places.

Tests used:
Assay type in all cases: cell-based
[1] = system: Aspergillus fumigatus TIMM1776
Description: (§1) The antifungal activities of the compounds synthesized in Examples 1 and 3 to 7 were measured by a liquid medium dilution method. Candida albicans TIMM0136, Cryptococcus neoformans TIMM0354 or Aspergillus fumigatus TIMM1776 was inoculated into a medium containing one of the compounds diluted serially, and cultured at 30° C. for two days. […] For the measurements, a medium containing 0.67% Yeast Nitrogen Base (Difco) and 1.0% glucose (YNBG medium) was used for the cultures of Candida albicans and Cryptococcus neoformans, and a medium containing 0.5% Brain Heart Infusion Bouillon (Nissui) (BHI medium) was used for the culture of Aspergillus fumigatus.

[2] = system: Candida albicans TIMM0136
Description: as §1

[3] = system: Cryptococcus neoformans TIMM0354
Description: as §1

Row | SMILES | MIC (μg/ml) A.f. ([1]; Aspergillus fumigatus TIMM1776, BHI medium, 30° C., two days, growth almost completely inhibited) | MIC (μg/ml) A.f. ([1]; TIMM1776) | MIC (μg/ml) C.a. [2] | MIC (μg/ml) C.n. [3]
1 | CCCCCCCCCCCCCC1CC(=O)N[C@@H](C)C(=O)N[C@@H](CCCN)C(=O)NCCC(=O)N[C@@H](CO)C(=O)N[C@@H](CO)C(=O)N[C@H](CC(N)=O)C(=O)N[C@H]([C@@H](C)O)C(=O)NCC(=O)O1 (mixture of isomers) [Compound 1, cyclo(-L-Ala-L-Orn-β-Ala-L-Ser-L-Ser-D-Asn-D-allo-Thr-Gly-(±) -Hhd-)] | 1.56 µg/mL | – | – | –
2 | CCCCCCCCCCCCCC1CC(=O)N[C@@H](C)C(=O)N[C@@H](CCCN)C(=O)N[C@@H](CC(N)=O)C(=O)N[C@@H](CO)C(=O)N[C@@H](CO)C(=O)N[C@H](CC(N)=O)C(=O)N[C@H]([C@@H](C)O)C(=O)NCC(=O)O1 (mixture of isomers) [Compound 3, cyclo(-L-Ala-L-Orn-L-Asn-L-Ser-L-Ser-D-Asn-D-allo-Thr-Gly-(±)-Hhd-)] | – | 1.56 µg/mL | 6.25 µg/mL | 3.12 µg/mL
3 | CCCCCCCCCCCCCC1CC(=O)N[C@@H](C)C(=O)N[C@@H](CCCN)C(=O)N[C@@H](CC(=O)O)C(=O)N[C@@H](CO)C(=O)N[C@@H](CO)C(=O)N[C@H](CC(N)=O)C(=O)N[C@H]([C@@H](C)O)C(=O)NCC(=O)O1 (mixture of isomers) [Compound 4, cyclo(-L-Ala-L-Orn-L-Asp-L-Ser-L-Ser-D-Asn-D-allo-Thr-Gly-(±)-Hhd-)] | – | – | 6.25 µg/mL | 6.25 µg/mL
4 | CCCCCCCCCCCCCC1CC(=O)N[C@@H](C)C(=O)N[C@@H](CCCN)C(=O)N[C@@H](CCC(=O)O)C(=O)N[C@@H](CO)C(=O)N[C@@H](CO)C(=O)N[C@H](CC(N)=O)C(=O)N[C@H]([C@@H](C)O)C(=O)NCC(=O)O1 (mixture of isomers) [Compound 5, cyclo(-L-Ala-L-Orn-L-Glu-L-Ser-L-Ser-D-Asn-D-allo-Thr-Gly-(±)-Hhd-)] | – | 0.39 µg/mL | 3.12 µg/mL | 6.25 µg/mL
5 | CCCCCCCCCCCCCC1CC(=O)N[C@@H](C)C(=O)N[C@@H](CCCN)C(=O)NCC(=O)N[C@@H](CO)C(=O)N[C@@H](CO)C(=O)N[C@H](CC(N)=O)C(=O)N[C@H]([C@@H](C)O)C(=O)NCC(=O)O1 (mixture of isomers) [Compound 6, cyclo(-L-Ala-L-Orn-Gly-L-Ser-L-Ser-D-Asn-D-allo-Thr-Gly-(±)-Hhd-)] | – | – | 12.5 µg/mL | 3.12 µg/mL
6 | CCCCCCCCCCCCCC1CC(=O)N[C@@H](C)C(=O)N[C@@H](CCCN)C(=O)N[C@@H](CO)C(=O)N[C@@H](CO)C(=O)N[C@@H](CO)C(=O)N[C@H](CC(N)=O)C(=O)N[C@H]([C@@H](C)O)C(=O)NCC(=O)O1 (mixture of isomers) [Compound 7, cyclo(-L-Ala-L-Orn-L-Ser-L-Ser-L-Ser-D-Asn-D-allo-Thr-Gly-(±)-Hhd-)] | – | 0.78 µg/mL | 6.25 µg/mL | 3.12 µg/mL
7 | CCCCCCCCCCCCCC1CC(=O)N[C@@H](C)C(=O)N[C@@H](CCCN)C(=O)NCCC(=O)N[C@@H](CO)C(=O)N[C@@H](CO)C(=O)N[C@H](CC(N)=O)C(=O)N[C@H]([C@H](C)O)C(=O)NCC(=O)O1 (stereo partly drawn) [AA^7:D-Thr-substituted analog] | – | > 200 µg/mL | > 200 µg/mL | > 200 µg/mL
8 | CCCCCCCCCCCCCC1CC(=O)N[C@@H](C)C(=O)N[C@@H](CCCN)C(=O)NCCC(=O)N[C@@H](CO)C(=O)N[C@@H](CO)C(=O)N[C@H](CC(N)=O)C(=O)N[C@@H]([C@@H](C)O)C(=O)NCC(=O)O1 (stereo partly drawn) [AA^7:L-Thr-substituted analog] | – | > 200 µg/mL | > 200 µg/mL | > 200 µg/mL
